Reference: patent US20250186396A1, “COMPOSITIONS AND METHODS FOR THE TREATMENT OF GLIOBLASTOMA WITH A DUAL TARGETING ANTI-TUMOR COMPOSITION” (Northwestern University, priority 2023, published 2025)

Columns and labels:
OLFML3 = test: Immunoblots for OLFML3 in GBM cells and GSCs; format: cell-based, human and mouse; conditions: immunoblot
Experimental: (§1) Cell Culture. The GBM cell lines U87, U251, SF763, LN229, and CT2A, as well as 293T cells were cultured in Dulbecco's Modified Eagle's Medium (DMEM; Gibco, #11995-065). The mouse glioma cell line GL261 cells and SIM-A9 microglia were cultured in Dulbecco's Modified Eagle Medium-Ham's F12 medium (Gibco, #10565-018). HMC3 microglia were cultured in Eagle's Minimum Essential Medium (ATCC, #30-2003). THP-1 macrophages were cultured in RPMI 1640 medium (Gibco, #11875093). All cell lines were cultured in the indicated medium containing 10% fetal bovine serum (FBS; Fisher Scientific, #16140071) and 1:100 antibiotic-antimycotic (Gibco, #15140-122), and were purchased from the American Type Culture Collection (ATCC). Human GSCs (GSC23 and GSC7-10) and mouse GBM tumor-derived 005 GSCs and QPP7 GSCs were cultured in neural stem cell (NSC) proliferation media (Millipore, #SCM005) containing 20 ng/mL epidermal growth factor (EGF; PeproTech, #AF-100-15) and basic fibroblast growth factor (bFGF; PeproTech, #100-18B). Human GSCs were gifted by Dr. Frederick F. Lang from the Brain Tumor Center (The University of Texas MD Anderson Cancer Center). 005 GSCs and QPP7 GSCs were provided by Dr. Samuel D. Rabkin (Massachusetts General Hospital) and Dr. Jian Hu (The University of Texas MD Anderson Cancer Center), respectively. PTEN CRISPR KO in SF763 and LN229 cells were generated. […]

[1] = test system: U87, PTEN-KO SF763 cells and 005 GSCs; test: Proliferation (CFSE) and colony formation assays; format: cell-based; conditions: BAPN 200 μM or SR9009 5 μM
Experimental: Proliferation (CFSE) assay. Cell proliferation was assessed using the CellTrace carboxy fluorescein succinimidyl ester (CFSE) Cell Proliferation Kit (Invitrogen, #C34554). Briefly, 1×10^6 cells were collected and incubated with CFSE working solution (1:1,000) for 20 minutes at 37° C. The staining was stopped by adding complete cell culture media. After washing, cells were cultured for 3 days with or without the treatment of BAPN (Sigma-Aldrich, #B-A3134, 200 μM), or SR9009 (Cayman, #11929, 5 μM) in the dark and used for flow cytometry analysis. The percentage of CFSE positive peaks over the undivided peak (generation 0) was analyzed using FlowJo v10.8.1.
Colony formation assay. 1×10^3 GBM cells were seeded in each well of 6-well plates with or without the treatment of BAPN (Sigma-Aldrich, #B-A3134, 200 μM), or SR9009 (Cayman, #11929, 5 μM). After 7-10 days, cells were fixed and stained with 0.5% crystal violet in 25% methanol for 1 hour. After three times washing by PBS, the plates were scanned, and the colony number was counted using ImageJ.

HMC3 microglia = test: Transwell migration assay of HMC3 microglia with U87 conditioned media; format: cell-based; conditions: conditioned media from U87 cells pretreated with BAPN 200 μM; 10 hours
Experimental: Migration assay. To study the relationship between macrophages and microglia, HMC3 microglia or THP-1 macrophages were seeded into the 24-well plates (receiver wells) using serum-containing culture medium for 24 hours to reach 40-60% confluence and then stimulated with or without U87 cell CM for additional 24 hours. After that, cells were washed with PBS twice and cultured in serum-free culture medium. For upper chambers, THP-1 macrophages (2×10^5) and HMC3 microglia (5×10^4) were suspended in serum-free culture medium and seeded into […] (Corning, #3421) and […] (Corning, #3422) 24-well Transwell inserts, respectively. To study the role of GBM cells on microglia migration, HMC3 microglia (5×10^4) were suspended in serum-free culture medium and seeded into 8.0 μm inserts. SIM-A9 microglia (1×10^5) and THP-1 macrophages (1×10^5) were suspended in serum-free culture medium and seeded into 5.0 μm inserts. The CM from LOX-depleted or inhibited U87 cells, LOX-overexpressed GL261 cells, or SR9009-treated U87 cells were added to the receiver wells, respectively. After 10 hours, migrated cells were fixed with 4% PFA (ThermoFisher, #J61899.AK) for 30 minutes and stained with crystal violet (Sigma-Aldrich, #C-3886) for another 30 minutes. The membrane inserts were washed with water and imaged under an EVOS microscope. The number of transferred cells was counted using ImageJ.

PD-L1 = test: Immunoblots for PD-L1 in PTEN-deficient GBM cells; format: cell-based, human and mouse; conditions: immunoblot; U87, PTEN-KO SF763, CT2A, 005 GSC, GSC23, GSC7-10; 24 hours
Experimental: as §1

## N#CCCN [BAPN, β-aminopropionitrile]
OLFML3; human (U87, PTEN-KO SF763, GSC23, GSC7-10) and mouse (CT2A, 005 GSCs) cells, BAPN at indicated concentrations
  expression of OLFML3: increased
[1]
  GBM cell proliferation: had no such effect
HMC3 microglia
  migration of HMC3 microglia: increased the migration ability
PD-L1
  expression of PD-L1: upregulated

## CCOC(=O)N1CCC(CN(Cc2ccc(Cl)cc2)Cc2ccc([N+](=O)[O-])s2)C1 (stereo not drawn) [SR9009]
OLFML3; U87 and PTEN-KO SF763 cells, SR9009 5 μM with BAPN 200 μM or SC75741 5 μM
  LOX or P65 inhibition-induced OLFML3 upregulation: rescued
[1]
  GBM cell proliferation: impaired
